{"source": "patent US10829649B2", "about": "“Methods and coatings for protecting surfaces from bio-fouling species” (priority 2018, dated 2020)", "key": {"[1]": {"details": "soil and water runoff; cited from earlier work"}, "[2]": {"details": "cited from earlier work"}, "[3]": {"system": "barnacle or mussel larvae", "assay": "biocide-impregnated polymer without outer biostatic layer exposed to larvae", "type": "in vivo", "details": "weeks or months later; no outer biostatic layer", "from_the_text": "With respect to undesirable effects on the aquatic environment and the benign and beneficial organisms that reside there, the outer biostatic layer is less potentially hazardous both for the chemical and physical reasons mentioned above and shields the water from contact with the more potentially hazardous inner biocidal layer. Also, when an occasional barnacle or mussel larva penetrates the outer layer and touches the inner layer as a juvenile, it is killed quickly and outright on contact. It has been experimentally observed that, when a polymer impregnated with a biocidal biocide such as ivermectin is exposed to barnacle or mussel larvae, and there is no outer biostatic attachment inhibiting polymer layer present, that larvae do attach regardless and grow on the surface of the polymer layer. The organisms with their tiny shells can be seen with a magnifying glass. […] With the present embodiments, the area of the puncture site of the inner layer is microscopic and thus nothing leaks out of the inner layer into the surrounding water."}}, "note": "Like-named read-outs stand apart in the source and are kept apart here.", "data": [{"molecule": "CC[C@H]1CCC[C@H](O[C@H]2CC[C@H](N(C)C)[C@@H](C)O2)[C@@H](C)C(=O)C2=C[C@@H]3[C@@H](C=C(C)[C@@H]4C[C@@H](O[C@@H]5O[C@@H](C)[C@H](OC)[C@@H](OC)[C@H]5OC)C[C@@H]34)[C@@H]2CC(=O)O1", "note": "[spinosad D]", "values": [{"measurement": "adsorption coefficient KOC", "setting": "[1]", "value": "34,600"}]}, {"molecule": "[Ag+].[O-][n+]1ccccc1[S-]", "note": "[silver pyrithione]", "values": [{"measurement": "water solubility", "setting": "[2]; silver pyrithione", "value": "about 37 per L"}]}, {"molecule": "Cc1cccc(C(C)c2cnc[nH]2)c1C", "note": "(stereo not shown) [Medetomidine]", "values": [{"measurement": "water solubility", "setting": "[2]", "value": 186, "unit": "µg/mL"}]}, {"molecule": "zinc pyrithione", "values": [{"measurement": "water solubility", "setting": "[2]; metal pyrithione salts", "value": "about 12 mg per L"}]}, {"molecule": "CC(C)[C@]12O[C@H]1[C@@H]1O[C@]13[C@]1(O[C@H]1C[C@H]1C4=C(CC[C@@]13C)C(=O)OC4)[C@@H]2O", "note": "[triptolide]", "values": [{"measurement": "water solubility", "setting": "[2]", "value": 0.017, "unit": "µg/mL"}]}, {"molecule": "[O]=[Zn]", "note": "[zinc oxide]", "values": [{"measurement": "water solubility", "setting": "[2]; pure water", "value": "about 16 mg/L"}]}, {"molecule": "ivermectin", "values": [{"measurement": "adult barnacles or mussels on the polymer layer", "setting": "[3]", "value": "no adult barnacle or mussel adults are seen"}]}, {"molecule": "pyrethrins", "values": [{"measurement": "water solubility", "setting": "[2]", "value": "< 0.1", "unit": "µg/mL"}, {"measurement": "adsorption coefficient KOC", "setting": "[1]", "value": "> 100,000"}]}, {"molecule": "spinosad", "values": [{"measurement": "adsorption coefficient KOC", "setting": "[1]", "value": "34,600"}]}]}
